Test [1] deals with lipid peroxidation reaction in liposomes (AAPH system). As to the kind of experiment: NBD-TEEPO assay in artificial lipid membranes, AAPH system. It is filed as biochemical. The note with it: AAPH 20 mM, AsA 0-20 μM, after 40 minutes. On the procedure: (§1) Probes (NBD-TEEPO compound) (5.0 μM) and liposomes (2.5 mg/mL Egg PC, 0.1 mg/mL DCP) were mixed in phosphate buffer (10 mM, pH 7.4, 0.5% DMSO, 0.5% acetonitrile) at 37° C. AAPH (0-20 mM) or FeSO4 (0-2.0 mM) was added to the mixture, and the lipid peroxidation reaction was started. After 40 minutes in the AAPH system or after 60 minutes in the Fe^2+ system, the fluorescence intensity was measured at an excitation wavelength of 470 nm and a fluorescence wavelength of 530 nm.

In test [2] the test system is HepG2 cells. As to the kind of experiment: Intracellular lipid peroxidation inhibition by antioxidants (NBD-TEEPO assay). It is filed as cell-based, human. The settings on record: 200 μM AA or 300 μM tBHP, 50 μM antioxidant, 45 minutes. On the procedure: Human hepatoma cells (HepG2 cells) were cultured with DMEM medium (containing 10% FBS, 1% Penicillin-Streptomycin and 1×MEM non-essential amino acids) in a CO2 incubator (37° C., 5% CO2). Passaging was performed when 60-70% subconfluent state was reached. DMEM media (phenol red free, containing 1% Penicillin-Streptomycin) was used for various measurements. HepG2 cells were seeded in a 96-well plate at 10,000 cells/well. The cells were incubated for 24 hours to adhere. AA (200 μM) or tBHP (0 to 300 μM), antioxidant (50 μM), and probe (5.0 μM) were added to the cells in DMEM medium (0.5% DMSO, 0.5% acetonitrile), and after 45 minutes, the fluorescence intensity was measured at an excitation wavelength of 470 nm and a fluorescence wavelength of 530 nm.

In test [3] the test system is HepG2 cells. As to the kind of experiment: Secondary screening, Core Library (NBD-TEEPO assay). It counts as cell-based, human. The settings on record: 50 μM compound, 200 μM AA (45 minutes) or 300 μM tBHP (60 minutes); high activity values in both systems. How it is done:
In the screening by the cell-based assay method, activity values were determined from the values of fluorescence intensity measured in each screening using AA or tBHP as a reaction initiator, based on the following expression: Activity value=100(AUCSample−AUCBackground)/(AUCControl−AUCBackground) • AUCSample: Area under the curve calculated from the fluorescence intensity for with reaction initiator and with each compound (n=1) • AUCControl: Area under the curve calculated from fluorescence intensity for with reaction initiator and without each compound • AUCBackground: Area under the curve calculated from fluorescence intensity for without reaction initiator and without each compound
For the compounds, 10 mM 100% DMSO solutions (dispensed at 5.0 µL/well) were provided from Drug Discovery Initiative, the University of Tokyo. 495 μL of DMEM medium for measurement was added, and a 1.0% DMSO solution containing 100 μM of the compound was prepared. This solution was dispensed by 80 μL with Biomek NXP into a measuring plate on which cells were seeded in advance. To the test compound (100 μM 1.0% DMSO), 64 μL of DMEM medium (1.25% acetonitrile) containing 12.5 M NBD-TEEPO compound, and 16 μL of PBS in which AA (2000 μM, 5.0% ethanol) or tBHP (3000 μM) was dissolved were manually dispensed. The final concentration was 50 μM test compound and 200 μM AA or 300 μM tBHP in DMEM medium (0.5% DMSO, 0.5% acetonitrile).
The reaction mixture was mixed at 37° C., and the fluorescence intensity at an excitation wavelength of 470 nm and a fluorescence wavelength of 530 nm was measured over time every 3 minutes. The AUC was calculated from the fluorescence intensity for 45 minutes in the AA-added system or 60 minutes in the tBHP-added system, and the activity value of each test compound was calculated according to the expression described herein.

The subject of test [4] is HepG2 cells. As to the kind of experiment: Secondary screening, Core Library (MTT assay). It counts as cell-based, human. The note with it: 50 μM compound, 100 μM AA or tBHP, 24 hours. On the procedure:
As a cell-based screening for examining the cell death inhibitory activity, an assay using human hepatoma-derived HepG2 cells and AA and tBHP as radical initiators is performed, and the cell viability is measured. The activity value is determined from the cell viability value based on the following expression: Activity value=100(ViabilitySample−ViabilityControl(+))/(ViabilityControl(−)−ViabilityControl(+)) • ViabilitySample: Cell viability for with reaction initiator and with each compound (n=1) • ViabilityControl(+): Cell viability for with reaction initiator and with each compound • ViabilityControl(−): Cell viability for without reaction initiator and without each compound
For the compounds, 10 mM 100% DMSO solutions (dispensed at 5.0 µL/well) were provided from Drug Discovery Initiative, the University of Tokyo. 495 μL of DMEM medium for measurement was added, and 1.0% DMSO solution containing 100 μM of the compound was prepared. This solution was dispensed by 80 μL with Biomek NXP into a measuring plate on which cells were seeded in advance. To the test compound (100 μM 1.0% DMSO), 64 μL of DMEM medium, 16 μL of PBS in which AA (1000 μM, 5.0% ethanol) or tBHP (1000 μM) was dissolved were manually dispensed. The final concentration was 5.0 μM NBD-TEEPO compound, 50 μM test compound, and 100 μM AA or tBHP in DMEM medium (0.5% DMSO, 0.5% acetonitrile). After 24 hours, the medium was exchanged, and MTT solution (0.5 mg/mL, 0.5% DMSO) was added. Then, cells were incubated for 24 hours, and the solution was removed. 100 μL of DMSO was added, and the absorbance at 630 nm was measured. The cell viability was calculated according to the expression described herein, with regarding the case without AA or tBHP as 100%.

The subject of test [5] is HepG2 cells. Put plainly: Tertiary screening, Core Library (NBD-TEEPO assay). It counts as cell-based, human. The note with it: 50 μM compound, 200 μM AA or 300 μM tBHP. How it is done:
The Core Library of Drug Discovery Initiative, the University of Tokyo, includes structural analogs for each compound. Then, secondary screening was also performed for structural analog compounds for each candidate compound in the same manner as Example 13 and the activity values were evaluated.
Specifically, the nine hit compounds, Compound Nos. 7, 19, 39, 48, 52, 64, 73, 78, 80, of the secondary screening had 5, 2, 4, 6, 6, 5, 5, 10, 2 structural analogs, respectively, thus, a total 45 structural analogs were taken. Then, including the original 9 compounds, a total 54 compounds were subjected to tertiary screening, and the activity values were calculated in the same manner.
For the evaluation of cytotoxicity, 50 μM antioxidant was added to HepG2 cells in DMEM medium (0.5% DMSO), and after incubation at 37° C. for 72 hours, the cell viability was measured. • 4) The activity values of the two-added systems in each of the assay using NBD-TEEPO and the MTT assay were plotted (FIG. 15C and FIG. 16C).

The subject of test [6] is HepG2 cells. As to the kind of experiment: Tertiary screening, Core Library (MTT assay). It is filed as cell-based, human. The settings on record: 50 μM compound, 100 μM AA or tBHP, 24 hours. On the procedure: Specifically, the nine hit compounds, Compound Nos. 7, 19, 39, 48, 52, 64, 73, 78, 80, of the secondary screening had 5, 2, 4, 6, 6, 5, 5, 10, 2 structural analogs, respectively, thus, a total 45 structural analogs were taken. Then, including the original 9 compounds, a total 54 compounds were subjected to tertiary screening, and the activity values were calculated in the same manner. […]

Test [7] concerns lipid peroxidation reaction in liposomes (Fe^2+ system). Put plainly: NBD-TEEPO assay in artificial lipid membranes, Fe2+ system. It counts as biochemical. The settings on record: FeSO4 1 mM, Eda 0-20 μM, after 60 minutes. On the procedure:
as §1

`O=C1O[C@H]([C@@H](O)CO)C(O)=C1O` [AsA, ascorbic acid]: the “inhibition of NBD-TEEPO fluorescence increase” value in test [1] is given as “inhibited the fluorescence increase concentration-dependently”. Regarding `Oc1cc(O)c2c(c1)O[C@H](c1ccc(O)c(O)c1)[C@H](O)C2` [Catechin, (−)-epicatechin], the “inhibitory effect on AA- and tBHP-induced fluorescence increase” value in test [2] is on record as “strongest inhibitory effect”. As to `CC(Nc1ccc(Nc2ccccc2)cc1)C(=O)Nc1ccc(S(N)(=O)=O)cc1` (stereo not shown) [Compound 7, 2-((4-(Phenylamino)phenyl)amino)-N-(4-sulfamoylphenyl)propanamide], the “activity values (lipid peroxidation inhibition) in both AA-added and tBHP-added systems” value in test [3] was “hit compounds”.

On to `C/C(=N/Nc1nnc(Nc2ccccc2Cl)s1)c1ccccn1` [Compound 19], for which the “inhibition rates (cell death inhibition) in both AA-added and tBHP-added systems” value (“inhibition rates (cell death inhibition)” below) in test [4] is on record as “high inhibition rates in both systems”. The same measure, in the same setting: under `CN(C1CC(C)(C)N(O)C(C)(C)C1)S(=O)(=O)CC12CCC(CC1=O)C2(C)C` (stereo not shown) [Compound 39, 1-(7,7-Dimethyl-2-oxobicyclo[2.2.1]heptan-1-yl)-N-(1-hydroxy-2,2,6,6-tetramethylpiperidin-4-yl)-N-methylmethanesulfonamide] stands “high inhibition rates in both systems”. `COc1cc(/C=C/c2ccc3cccc([N+](=O)[O-])c3n2)cc(OC)c1O` [Compound 48, 2,6-Dimethoxy-4-(2-(8-nitroquinolin-2-yl)vinyl)phenol]: the “activity values (lipid peroxidation inhibition) in both AA-added and tBHP-added systems” value in test [3] is “hit compounds”. `COC(=O)c1ccc(Nc2ccccc2)c(N)c1` [Compound 52, Methyl 3-amino-4-(phenylamino)benzoate]: the “lipid peroxidation inhibitory effects” value in test [5] is listed as “high”. Also, the “cell death inhibitory effects” value in test [6] is “high”. For the same molecule, the “inhibition rates (cell death inhibition)” value in test [4] is “high inhibition rates in both systems”.

With `COC(=O)c1ccc(Nc2ccc(OC)cc2)c(N)c1` [Compound 52-1, Methyl 3-amino-4-((4-methoxyphenyl)amino)benzoate], the “lipid peroxidation inhibitory effects” value in test [5] is given as “high”. Moreover, in test [6], the “cell death inhibitory effects” value is “high”. As for `COC(=O)c1ccc(Nc2cccc(OC)c2)c(N)c1` [Compound 52-3, Methyl 3-amino-4-((3-methoxyphenyl)amino)benzoate], the “lipid peroxidation inhibitory effects” value in test [5] is on record as “high”. In addition, the “cell death inhibitory effects” value in test [6] was “high”. Consider `COC(=O)c1ccc(NCc2ccccc2)c(N)c1` [Compound 52-4, Methyl 3-amino-4-(benzylamino)benzoate], for which the “lipid peroxidation inhibitory effects” value in test [5] is listed as “high”. Moreover, in test [6], the “cell death inhibitory effects” value is “high”. In the case of `CN(C)c1cc2c(cc1N)-c1ccccc1C2` [Compound 64, N^2,N^2-Dimethyl-9H-fluorene-2,3-diamine], the “activity values (lipid peroxidation inhibition) in both AA-added and tBHP-added systems” value in test [3] is recorded as “hit compounds”. In the case of `NC(=O)c1cccc(-c2ccc3nc(-c4cccc(OCCO)c4)c(NCCN4CCOCC4)n3c2)c1` [Compound 73, 3-(2-(3-(2-Hydroxyethoxy)phenyl)-3-((2-morpholinoethyl)amino)imidazo[1,2-a]pyridin-6-yl)benzamide], the “inhibition rates (cell death inhibition)” value in test [4] is recorded as “high inhibition rates in both systems”. Consider `Nc1ccc2c(c1)CCN2c1ccc(OC(F)(F)F)cc1` [Compound 78, 1-(4-(Trifluoromethoxy)phenyl)indolin-5-amine], for which, in test [5], the “lipid peroxidation inhibitory effects” value is reported as “high”. Besides, in test [6], the “cell death inhibitory effects” value is on record as “high”. The “inhibition rates (cell death inhibition)” value in test [4] is on record as “high inhibition rates in both systems”. Turning to `Cc1cc(C)cc(-n2ccc3ccc(N)cc32)c1` [Compound 78-3, 1-(3,5-Dimethylphenyl)-1H-indol-6-amine], in test [5], the “lipid peroxidation inhibitory effects” value is reported as “high”. For the same molecule, the “cell death inhibitory effects” value in test [6] is “high”. As for `Cc1cc(C)cc(N2CCc3ccc(N)cc32)c1` [Compound 78-4, 1-(3,5-Dimethylphenyl)indolin-6-amine], the “lipid peroxidation inhibitory effects” value in test [5] is reported as “high”. Besides, in test [6], the “cell death inhibitory effects” value is listed as “high”. As to `COc1ccc(-n2ccc3cc(N)ccc32)cc1` [Compound 78-5, 1-(4-Methoxyphenyl)-1H-indol-5-amine], the “lipid peroxidation inhibitory effects” value in test [5] was “high”. The “cell death inhibitory effects” value in test [6] is “high”. Consider `CSc1ccc(-n2ccc3cc(N)ccc32)cc1` [Compound 78-6, 1-(4-(Methylthio)phenyl)-1H-indol-5-amine], for which the “lipid peroxidation inhibitory effects” value in test [5] was “high”. The “cell death inhibitory effects” value in test [6] is “high”.

For `Nc1ccc2c(ccn2-c2ccc(OC(F)(F)F)cc2)c1` [Compound 78-8], the “lipid peroxidation inhibitory effects” value in test [5] is on record as “high”. The “cell death inhibitory effects” value in test [6] is “high”. For `CC1=NN(c2ccccc2)C(=O)C1` [Eda, Edaravone], the “inhibition of NBD-TEEPO fluorescence increase” value in test [7] is reported as “inhibited the fluorescence increase concentration-dependently”.

(Values after patent US12306164B2, “Therapeutic drug for lipid-peroxidation-induced diseases and screening method for therapeutic drugs for lipid-peroxidation-induced diseases” (FUSO PHARMACEUTICAL INDUSTRIES, LTD., priority 2017, dated 2025).)
